Patent US20250041306A1, “TARGETED PROTEASE DEGRADATION (TED) PLATFORM” (EUBULUS BIOTHERAPEUTICS INC., priority 2021, published 2025)
Where two headings read alike, the source gives them in different places.

How the values were obtained:
Assay type in all cases: cell-based
[1] = test system: human gastric carcinoma cells N87; test: Cell proliferation experiment (Alarm blue), N87; conditions: N87 cells, 72 h culture, read-out: Anti cell proliferative activity EC50, N87
Description: (§1) The cells were cultured in conventional ways, and the cells should be passed for at least 2 generations before plating. Cells at the logarithmic growth phase were collected, prepared into single cell suspensions and counted. The concentration of cells was adjusted to desired concentration, and cells were inoculated into a 96-well cell culture plate at 100 μl per well. 100 μL of complete medium of the test compound were added to each well, 2 replicate wells for each concentration were set up, and diluted with a 5-fold gradient, and continued to culture for 72 h. All cells were subjected to EC50 test for corresponding samples.
(§2) The fluorescence intensity of each well was detected using the Alarm blue method, and IC50 was calculated.
(§3) IC50 was calculated according to the following formula:
(§4) [formula] • wherein Min, Max and Slope represent the minimum, maximum and slope respectively.

[2] = test system: Human Colon Cancer HT-29; test: Cell proliferation experiment (Alarm blue), HT-29; conditions: HT-29 cells, 72 h culture, read-out: Anti cell proliferative activity EC50, HT-29
Description: as §1, §2, §3, §4

[3] = test system: Human Small Cell Lung Cancer H69; test: Cell proliferation experiment (Alarm blue), H69; conditions: H69 cells, 72 h culture, read-out: Anti cell proliferative activity EC50, H69
Description: as §1, §2, §3, §4

[4] = test system: Human Colon Cancer cells Colo205; test: Cell proliferation experiment (Alarm blue), Colo205; conditions: Colo205 cells, 72 h culture, read-out: Anti cell proliferative activity EC50, Colo205
Description: as §1, §2, §3, §4

[5] = test system: Human Small Cell Lung Cancer NCI-H82; test: Cell proliferation experiment (Alarm blue), H82; conditions: H82 cells, 72 h culture, read-out: Anti cell proliferative activity EC50, H82
Description: as §1, §2, §3, §4

Structure (SMILES): CC(OC(=O)N(CCC#Cc1ccc2c(c1)CN(C1CCC(=O)NC1=O)C2=O)C1CCC(NC(=O)N2CCN(c3ccc(Nc4ncc(Cl)c(Nc5ccccc5C(N)=O)n4)cc3)CC2)CC1)C(C)SSC[C@H](N)C(=O)N[C@H](Cc1ccccc1)C(=O)N[C@H]1CSSC[C@@H](C(=O)N[C@H](CO)[C@@H](C)O)NC(=O)[C@H]([C@@H](C)O)NC(=O)[C@H](CCCCN)NC(=O)[C@@H](Cc2c[nH]c3ccccc23)NC(=O)[C@H](Cc2ccccc2)NC1=O (some centres unmarked) [UB-181275]
- EC50 [1]: > 1000 nM
- EC50 [2]: 968 nM
- EC50 [3]: > 1000 nM
- EC50 [4]: 442 nM
- EC50 [5]: 740 nM

Structure (SMILES): CNC(=O)c1ccccc1Nc1nc(Nc2ccc(N3CCC(C(=O)N4CCC5(CC4)CC(NCCC#Cc4ccc6c(c4)CN(C4CCC(=O)NC4=O)C6=O)C5)CC3)cc2)ncc1Cl (centres unmarked) [UB-181249]
- EC50 ([1]; Homo sapiens, 72 h): 66.1 nM
- EC50 ([3]; Homo sapiens, NCI-H69): > 1000 nM
- EC50 ([4]; Homo sapiens, COLO 205, 72 h): 52 nM
- EC50 ([5]; Homo sapiens, NCI-H82, 72 h): 386 nM

Structure (SMILES): CNC(=O)c1ccccc1Nc1nc(Nc2ccc(N3CCN(C(=O)N[C@H]4C[C@@H](NCCC#Cc5ccc6c(c5)CN(C5CCC(=O)NC5=O)C6=O)C4)CC3)cc2)ncc1Cl (some centres unmarked) [UB-181250]
- EC50 ([1]; Homo sapiens, 72 h): 20.5 nM
- EC50 ([3]; Homo sapiens, NCI-H69): > 1000 nM
- EC50 ([4]; Homo sapiens, COLO 205, 72 h): 48.2 nM
- EC50 ([5]; Homo sapiens, NCI-H82, 72 h): 53.7 nM

Structure (SMILES): NC(=O)c1ccccc1Nc1nc(Nc2ccc(N3CCN(C(=O)N[C@H]4C[C@H](NCCC#Cc5ccc6c(c5)CN(C5CCC(=O)NC5=O)C6=O)C4)CC3)cc2)ncc1Cl (some centres unmarked) [UB-181261]
- EC50 ([1]; Homo sapiens, 72 h): 23.6 nM
- EC50 ([3]; Homo sapiens, NCI-H69): 61.2 nM
- EC50 ([4]; Homo sapiens, COLO 205, 72 h): 24.8 nM
- EC50 ([5]; Homo sapiens, NCI-H82, 72 h): 24.9 nM

Structure (SMILES): NC(=O)c1ccccc1Nc1nc(Nc2ccc(N3CCN(C(=O)N[C@H]4CC[C@@H](NC5CN(CCC#Cc6ccc7c(c6)CN(C6CCC(=O)NC6=O)C7=O)C5)CC4)CC3)cc2)ncc1Cl (some centres unmarked) [UB-181251]
- EC50 ([1]; Homo sapiens, 72 h): 71.9 nM
- EC50 ([3]; Homo sapiens, NCI-H69): > 1000 nM
- EC50 ([4]; Homo sapiens, COLO 205, 72 h): 133 nM
- EC50 ([5]; Homo sapiens, NCI-H82, 72 h): 32.4 nM

Structure (SMILES): NC(=O)c1ccccc1Nc1nc(Nc2ccc(N3CCN(C(=O)NC4CCN(C(=O)CNCCC#Cc5ccc6c(c5)CN(C5CCC(=O)NC5=O)C6=O)CC4)CC3)cc2)ncc1Cl (centres unmarked) [UB-181236]
- EC50 ([1]; Homo sapiens, 72 h): 92.5 nM
- EC50 ([3]; Homo sapiens, NCI-H69): > 1000 nM
- EC50 ([4]; Homo sapiens, COLO 205, 72 h): 146 nM
- EC50 ([5]; Homo sapiens, NCI-H82, 72 h): 603 nM

Structure (SMILES): CNC(=O)c1ccccc1Nc1nc(Nc2ccc(N3CCN(C(=O)NC4CCN(C(=O)CNCCC#Cc5ccc6c(c5)CN(C5CCC(=O)NC5=O)C6=O)CC4)CC3)cc2)ncc1Cl (centres unmarked) [UB-181235]
- EC50 ([1]; Homo sapiens): 813 nM
- EC50 ([3]; Homo sapiens, NCI-H69): > 1000 nM
- EC50 ([4]; Homo sapiens, COLO 205): 144 nM
- EC50 ([5]; Homo sapiens, NCI-H82): 253 nM

Structure (SMILES): C[C@H](NC(=O)CCCCCN1C(=O)C=CC1=O)C(=O)N[C@@H](C)C(=O)N[C@@H](CC(N)=O)C(=O)Nc1ccc(COC(=O)N(CCC#Cc2ccc3c(c2)CN(C2CCC(=O)NC2=O)C3=O)C2CCC(NC(=O)N3CCN(c4ccc(Nc5ncc(Cl)c(Nc6ccccc6C(N)=O)n5)cc4)CC3)CC2)cc1 (some centres unmarked) [UB-181295]
- EC50 ([2]; Homo sapiens): 484 nM
- EC50 ([3]; Homo sapiens, NCI-H69): 953 nM
- EC50 ([4]; Homo sapiens, COLO 205): 136 nM
- EC50 ([5]; Homo sapiens, NCI-H82): 106 nM

Structure (SMILES): CNC(=O)c1ccccc1Nc1nc(Nc2ccc(N3CCN(C(=O)N[C@H]4C[C@@H](NCC#Cc5ccc6c(c5)CN(C5CCC(=O)NC5=O)C6=O)C4)CC3)cc2)ncc1Cl (some centres unmarked) [UB-181257]
- EC50 ([1]; Homo sapiens, 72 h): 71.8 nM
- EC50 ([3]; Homo sapiens, NCI-H69): > 1000 nM
- EC50 ([4]; Homo sapiens, COLO 205, 72 h): 59.4 nM
- EC50 ([5]; Homo sapiens, NCI-H82, 72 h): 42.3 nM

Structure (SMILES): NC(=O)c1ccccc1Nc1nc(Nc2ccc(N3CCN(C(=O)NC4CCN(C(=O)CNCCC#Cc5ccc6c(c5)CN(C5CCC(=O)NC5=O)C6=O)CC4)CC3)cc2)ncc1Cl (centres unmarked) [UB-181239]
- EC50 [1]: 132 nM
- EC50 [3]: > 1000 nM
- EC50 [4]: 175 nM
- EC50 [5]: 354 nM
